{"source": "patent US20140106380A1", "about": "“METHODS FOR IDENTIFYING INHIBITORS OF ABETA42 OLIGOMERS” (Merck Sharp & Dohme Crop., priority 2010, published 2014)", "type_in_all_cases": "biochemical", "key": {"Aβ42 [1]": {"molecular_target": "T1, Aβ42 (Homo sapiens, UniProt P05067)", "T1 construct": "Synthetic human Aβ1-42, purchased from American Peptide Company (Sunnyvale, Calif.); purchased American Peptide Company (Sunnyvale, Calif.); host or cells: chemically synthesised peptide", "T1 sequence (P05067 672-713 limits assumed)": "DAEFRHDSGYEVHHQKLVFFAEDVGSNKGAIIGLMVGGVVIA", "test": "Aβ42 CT AlphaLISA, inhibition of early oligomerization", "conditions": "for Aβ42 CT immunoreactivity: Aβ42 1 nM, oligomerization at 4° C. overnight, different buffers, AlphaLISA", "protocol": "To test a compound's effect on inhibition of early oligomerization, SI, or a different testing compound, was mixed with the Aβ42 solution to make solutions with final concentrations of SI from 0.1 μM to 10 mM (0.1 μM, 1 μM, 10 μM, 100 μM, 1 mM, and 10 mM) and Aβ42 from 1 nM to 10 μM (1 nM, 10 nM, 100 nM, 1 μM and 10 μM). For example, a 10 μM Aβ42 solution contained, respectively, 0 μM, 0.1 μM, 1 μM, 10 μM, 100 μM, 1 mM and 10 mM SI. The same SI concentration series was applied to other concentrations of the Aβ42 solution indicated above. The mixtures were either incubated at 4° C. overnight or room temperature for two to three hours, before being used in the immunoreactive assay. Similarly, the presence of Aβ42 oligomers was detected using an Aβ42 C-terminal (CT) AlphaLISA assay (Eglen et al., 2008, Curr. Chem. Genomics, 1:2-10), a bead based proximity assay, based upon an oxygen channeling technology. The assay was carried out in a 384 well plate using an AlphaLISA® Human Amyloid β 1-[…]42 Research Immunoassay Kit (PerkinElmer, Waltham, Mass.) according to the manufacturer's directions. To make a 2.5× AlphaLISA acceptor bead and biotinylated anti-Aβ42 antibody mixture, 5.5 μl acceptor beads conjugated to anti-Aβ42 (12F4) and 5.5 μl biotin-Aβ42 antibody (binds to a epitope away from the CT of Aβ42) were added to 1,089 μl 1S AlphaLISA buffer and mixed by brief vortexing. To each well of a 384-well plate, 8 μl of the mix and 2 μl of an Aβ42 sample were added, followed by gentle tapping of the plate to mix the solutions. The plate was incubated at room temperature for one hour. The streptavidin donor bead solution was made in a dark room under safety light by mixing 20.1 μl of streptavidin donor beads with 1,279 μl 1× AlphaLISA buffer. The streptavidin donor bead solution, which binds to the biotinylated anti-Aβ42 antibody, was then added (10 μl/well) to the plate, sealed with an adhesive aluminum membrane, and incubated at room temperature for 30 minutes. Incubation brought the donor and acceptor beads into close proximity. An immunoreactive signal was generated when the donor bead released a singlet oxygen that, when excited at 680nm, was transferred to the acceptor bead, resulting in a light emission at 610 nm. The immunoreactive signals were read with a multilabel plate reader (EnVision®, PerkinElmer, Waltham, Mass.). The presence of Aβ42 oligomers was determined by a corresponding decrease in the C-terminal immunosignal. Values for the AlphaLISA assays were graphed and analyzed with Prism GraphPad software. Similar to signals generated with ELISA, the extent of Aβ42 oligomerization is inversely correlated with the magnitude of the CT immunosignal in AlphaLISA. Values for the ELISA assays were graphed and analyzed with Prism GraphPad software."}, "Aβ42 oligomers [2]": {"molecular_target": "T2, Aβ42 oligomers (Homo sapiens, UniProt P05067)", "T2 construct": "Synthetic human Aβ1-42, purchased from American Peptide Company (Sunnyvale, Calif.); purchased American Peptide Company (Sunnyvale, Calif.); host or cells: chemically synthesised peptide", "T2 sequence (P05067 672-713 limits assumed)": "as above", "test": "Aβ42 NT immunoassay (6E10-6E10)", "conditions": "P<0.01", "protocol": "The effect of an Aβ oligomer inhibitor on the metastability of Aβ42 oligomers prepared according Example 1 was evaluated as follows. A sample of the 1 mM Aβ42 DMSO stock was diluted to 10 μM or 100 μM in PBS or Neurobasal (e.g., 10 μl of 1 mM Aβ42 DMSO stock to make 1 ml 10 μM solution or 100 μl A(342 DMSO stock to make 1 ml 100 μM solution). After incubation at 37° C., the diluted oligomer solutions were mixed with scyllo-inositol (SI), a naturally occurring plant sugar alcohol found most abundantly in the coconut palm, to make a final concentrations of 1 μM or 10 μM Aβ42 containing 10 mM SI. The non-compound control oligomer sample contained no SI. The mixtures were incubated on ice for two to three hours to allow establishment of new equilibrium (metastability) among Aβ42 species. The stabilized mixtures were then utilized in the immunoreactive assays. An Aβ42 N-terminal (NT) oligomer ELISA was performed by adopting a 6E10-6E10 ELISA originally developed in house at Merck and also reported by others (Gandy et al., 2010, Ann. Neurol. 68: 220-230; Xia et al., 2009, Arch. Neurol. 66:190-199). […] The immunoreactive signals were read with a multilabel plate reader (EnVision®, PerkinElmer, Waltham, Mass.). The presence of Aβ42 oligomers was determined by a corresponding increase in the NT immunosignal. Values for the ELISA assays were graphed and analyzed with Prism GraphPad software. […]"}, "Aβ42 oligomers [3]": {"molecular_target": "T2, Aβ42 oligomers", "test": "Aβ42 CT immunoassay, metastability of pre-formed Aβ42 oligomers", "conditions": "addition to pre-formed Aβ42 oligomers, P<0.01 relative to samples without SI", "protocol": "The effect of an Aβ oligomer inhibitor on the metastability of Aβ42 oligomers prepared according Example 1 was evaluated as follows. […] Similarly, the presence of Aβ42 oligomers was detected using an Aβ42 C-terminal (CT) AlphaLISA assay (Eglen et al., 2008, Curr. Chem. Genomics, 1:2-10), a bead based proximity assay, based upon an oxygen channeling technology. […] The immunoreactive signals were read with a multilabel plate reader (EnVision®, PerkinElmer, Waltham, Mass.). The presence of Aβ42 oligomers was determined by a corresponding decrease in the C-terminal immunosignal. Values for the AlphaLISA assays were graphed and analyzed with Prism GraphPad software. […] Values for the ELISA assays were graphed and analyzed with Prism GraphPad software."}, "Aβ42 [4]": {"molecular_target": "T1, Aβ42", "test": "Dynamic light scattering of Aβ42 oligomerization", "conditions": "Aβ42 40 μM, 25 °C, in the presence of SI", "protocol": "Dynamic light scattering (DLS), also known as also known as quasi-elastic laser light scattering, offered another methodology to determine Aβ42 oligomerization by measuring the size distribution profile and shape of particles in solution. […] Sample preparation for the DLS assay was performed in a bio-safety cabinet. All solutions and reagents were pre-filtered with a 0.1 μm Whatman filter (Whatman, Piscataway, N.J.). Aβ42 (100 μM) made in PBS from the 1 mM DMSO stock (Example 1) was filtered with a 0.2 μm filter (Whatman, Piscataway, N.J.) and diluted to 50 μM to 10 μM with PBS or water. The samples were added to the DLS plate (50 μl/well) in the presence or absence of compounds and incubated at room temperature for seven to eight hours. The plate was briefly centrifuged (1 minute at 3000 rpm) and placed in the DynaPro DLS plate reader (Wyatt Technology, Dernbach, Germany), in which different parameters (normalized intensity, hydrodynamic radius, molecular weight, relative molecular mass, percent polydispersity, and sum of square) of the Aβ42 oligomer samples were measured, and analyzed with Dynamics 7.0.0 software (Wyatt Technology, Dernbach, Germany)."}}, "data": [{"molecule": "O[C@H]1[C@H](O)[C@@H](O)[C@H](O)[C@@H](O)[C@H]1O", "note": "[myo-inositol]", "values": [{"measurement": "Aβ42 CT immunoreactivity", "setting": "Aβ42 [1]", "result": "no effect"}]}, {"molecule": "Ac-Leu-Pro(N-CH3)Phe-Phe-Asp-NH2 [Peptide IV]", "values": [{"measurement": "NT immunosignal", "setting": "Aβ42 oligomers [2]; FIG. 7B", "result": "significant decrease"}, {"measurement": "CT immunoreactivity", "setting": "Aβ42 [1]; FIG. 7A", "result": "dose-depended increase"}]}, {"molecule": "O[C@H]1[C@H](O)[C@@H](O)[C@H](O)[C@@H](O)[C@@H]1O", "note": "[SI, scyllo-inositol]", "values": [{"measurement": "NT immunoreactivity", "setting": "Aβ42 oligomers [2]; addition to pre-formed Aβ42 oligomers", "result": "significant decrease"}, {"measurement": "CT immunoreactivity", "setting": "Aβ42 oligomers [3]", "result": "statistically significant increase"}, {"measurement": "% Intensity, Peak 1", "setting": "Aβ42 [4]", "result": 0.7, "unit": "%"}, {"measurement": "% Intensity, Peak 2", "setting": "Aβ42 [4]", "result": 96.88, "unit": "%"}, {"measurement": "% Mass, Peak 1", "setting": "Aβ42 [4]", "result": 76, "unit": "%"}, {"measurement": "% Mass, Peak 2", "setting": "Aβ42 [4]", "result": 38, "unit": "%"}, {"measurement": "MW-R, Peak 1", "setting": "Aβ42 [4]", "result": 11.6, "unit": "kDa"}, {"measurement": "MW-R, Peak 2", "setting": "Aβ42 [4]", "result": 527.1, "unit": "kDa"}, {"measurement": "Radius, Peak 1", "setting": "Aβ42 [4]", "result": 2.5, "unit": "nm"}, {"measurement": "Radius, Peak 2", "setting": "Aβ42 [4]", "result": "remained unchanged"}, {"measurement": "% Mass, Peak 1", "setting": "Aβ42 [4]; listed as Ab42/SI", "result": 72.93, "unit": "%"}, {"measurement": "% Mass, Peak 2", "setting": "Aβ42 [4]; listed as Ab42/SI", "result": 38.75, "unit": "%"}, {"measurement": "Radius, Peak 2", "setting": "Aβ42 [4]; listed as Ab42/SI", "result": 21.4, "unit": "nm"}, {"measurement": "Aβ42 CT immunoreactivity", "setting": "Aβ42 [1]", "result": "dose dependent increase"}]}, {"molecule": "OC1C(O)C(O)C(O)C(O)C1O", "note": "(stereo not drawn) [chiro-inositol]", "values": [{"measurement": "Aβ42 CT immunoreactivity", "setting": "Aβ42 [1]", "result": "no effect"}]}]}
